According to patent publication US11377423B2, “Inhibitors of histone deacetylase” (The Broad Institute, Inc., priority 2012, dated 2022):
Several values for one entry are separate records, joined by “and”; a condition that tells them apart may be missing. Equal entries are not always repeated. Where two headings read alike, the source gives them in different places.

Tests used:
HDAC4 = HDAC4 (Homo sapiens (Human), UniProt P56524); assay: Caliper HDAC enzymatic endpoint assay, HDAC4; assay type: biochemical; details: Table 2C; read-out: HDAC4 IC50 after 0 hr preincubation
Human islets = assay: Glucolipotoxicity-induced apoptosis in human islets, caspase-3 activity assay; assay type: cell-based; details: 10 μM, 0.5 mM palmitate and 25 mM glucose, 72 h
Text: Human islets were provided by the Integrated Islet Distribution Program administered by the City of Hope Hospital (IIDP: http://iidp.coh.org/). The average reported purity was 85%±5.2 and viability was 94%±0.6 (age 50±5 years, body mass index 31±2.7 kg/m2). Causes of death were head trauma (n=3), stroke and anoxia. Islets were dissociated and seeded (30,000 cells/well) into black optical 96-well plates (Corning Life Sciences) that coated with HTB-9 extracellular matrix as previously described. (Walpita, D., et al. (2012) J. Biomol. Screen. 17, 509-518.) The dissociated islet cell cultures were allowed to attach and grow in CMRL media in 10% FBS for 3 days before exposure to palmitate (0.5 mM) and high glucose (25 mM) in medium with 1% BSA and without FBS for 72 hours.
(§1) Compounds of the invention protect against combined palmitate and high glucose induced apoptosis in INS-1E cells. […] Apoptosis was measured by caspase-3 activity assay.

HDAC9 = HDAC9 (Homo sapiens (Human), UniProt Q9UKV0); assay: Caliper HDAC enzymatic endpoint assay, HDAC9; assay type: biochemical; details: Table 2C; read-out: HDAC9 IC50 after 0 hr preincubation
HDAC2 [1] = target: T1, HDAC2 (Homo sapiens (Human), UniProt Q92769); assay: Kinetics of the inhibition of HDAC2
HDAC6 = HDAC6 (Homo sapiens (Human), UniProt Q9UBN7); assay: Caliper HDAC enzymatic endpoint assay, HDAC6; assay type: biochemical; details: Table 2C; read-out: HDAC6 IC50 after 0 hr preincubation
INS-1E cells [2] = assay: Palmitate and/or glucose-induced beta-cell apoptosis, caspase-3/7 activation; assay type: cell-based, rat; details: 0.5 mM palmitate and/or 25 mM glucose, 48 hours
Method: Compounds of the invention were evaluated for their ability to suppress cytokine-induced beta-cell apoptosis and palmitate and/or glucose-induced beta-cell apoptosis by inhibition of HDAC3. Assay protocols were as follows: Cell culture and reagents. […] Recombinant IL-1β, IFN-γ, and TNF-α were purchased from R&D Systems. Palmitate, D-glucose and fatty acids-free low endotoxin BSA were purchased from Sigma. Palmitate was solubilized in 90% ethanol, heated to 60° C. and used 1:100 dilution in media. Caspase-Glo 3/7 was from Promega and 3-(4,5-dimethylthiazol-2-yl)-2,5-diphenyltetrazolium bromide (MTT) was from Calbiochem. Antibodies for HDAC1, HDAC2, HDAC3, pJNK, JNK cleaved caspase-9 and secondary horseradish-peroxidase conjugated goat anti-mouse and anti-rabbit antibodies were from Cell Signaling. Antibody for beta-actin was from Sigma and antibody against CHOP (GADD153) from Abcam. HDAC inhibitors were purchased from Selleck Chemicals or synthesized in-house. Primers were from Integrated DNA Technologies, High Capacity cDNA RT kit and SYBR green master mix were purchased from Applied Biosystems. […] Luminescence was measured after a two-hour incubation using an Envision plate reader (PerkinElmer). […] Apoptosis was measured by caspase-3/7 activation using a commercially available kit. […]

INS-1E cells [3] = assay: ER stress / UPR markers by qPCR and immunoblotting; assay type: cell-based, rat; details: 10 μM, GLT
Method: INS-1E cells (one million/well) were seeded in 6-well plates in 2 mL complete medium. After two days, medium was removed and cells were exposed to 2 mL medium/well with the indicated concentrations of palmitate, glucose, HDAC inhibitors and/or vehicle. RNA was purified (Qiagen) and cDNA synthesis performed done according to manufacturers' guidelines (Applied Biosystems) and real-time PCR performed using the SYBR green method (Applied Biosystems). Each cDNA sample in triplicate was subjected to two individual PCR amplifications either for the gene of interest or the reference gene β-actin. See table below for primer sequences. INS-1E cells (one million/well) were seeded in 6-well plates in 2 mL complete medium. After two days, medium was removed and cells were exposed to 2 mL medium/well with the indicated concentrations of palmitate, glucose, test compounds and/or vehicle. Cells were lysed using Passive Lysis Buffer (Promega) containing protease inhibitors (Roche). Lysates were adjusted for protein concentration (Bradford) and protein separated by SDS-PAGE and transferred to PVDF membranes. Blots were developed using a chemiluminescence detection system (SuperSignal, Thermo Fisher Scientific), and light emission was captured using an Imaging Station 4000MM (Carestream). […] Gene expressions (vehicle=open bars, compound 1=light grey bars, GLT=black bars, GLT and compound 1=dark grey bars) were analyzed by qPCR (FIGS. 14A, 14B, 14D, 14E, and 14F) and protein levels (FIGS. 14C and 14G) (24 h) by immunoblotting. Representative blots are shown. Data are presented as fold to CTRL+SEM n=3-4, ns=not significant, *p<0.05, **p<0.01, ***p<0.001 vs unexposed cells; #p<0.05, ##p<0.01, ###p<0.001 vs. GLT treated cells, ANOVA with Tukey corrected test.

HDAC2 [4] = target: T1, HDAC2; assay: Tm shift; assay type: binding
HDAC1 = HDAC1 (Homo sapiens (Human), UniProt Q13547); assay: Binding constant from HDAC1 inactivation kinetics
Rat islets = assay: Glucolipotoxicity-induced apoptosis in rat islets, cell death ELISA; assay type: cell-based; details: 10 μM, 0.5 mM palmitate and 25 mM glucose, 60 h
Method: Rat islets (50 islets/well) were cultured in 48-well plates (NUNC) and exposed to palmitate (0.5 mM) and glucose (25 mM) in medium supplemented with 1% FBS and 1% BSA for 60 hours. Cell death was determined in biological duplicates using a cell death ELISA assay (Roche).
as §1

T1 sequence (Q92769 whole entry): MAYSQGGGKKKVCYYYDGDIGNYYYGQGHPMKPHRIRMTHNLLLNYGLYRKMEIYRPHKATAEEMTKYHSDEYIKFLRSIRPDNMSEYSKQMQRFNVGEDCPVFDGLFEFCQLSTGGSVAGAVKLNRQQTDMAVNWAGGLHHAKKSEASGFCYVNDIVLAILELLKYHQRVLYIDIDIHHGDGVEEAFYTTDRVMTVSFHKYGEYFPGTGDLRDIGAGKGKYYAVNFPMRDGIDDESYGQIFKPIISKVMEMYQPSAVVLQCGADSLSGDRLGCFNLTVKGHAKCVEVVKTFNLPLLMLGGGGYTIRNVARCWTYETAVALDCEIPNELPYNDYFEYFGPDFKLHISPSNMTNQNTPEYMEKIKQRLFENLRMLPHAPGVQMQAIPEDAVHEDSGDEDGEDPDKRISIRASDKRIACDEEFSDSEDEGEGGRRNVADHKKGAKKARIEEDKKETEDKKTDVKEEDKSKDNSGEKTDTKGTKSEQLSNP
Sequence of HDAC1 (Q13547 whole entry): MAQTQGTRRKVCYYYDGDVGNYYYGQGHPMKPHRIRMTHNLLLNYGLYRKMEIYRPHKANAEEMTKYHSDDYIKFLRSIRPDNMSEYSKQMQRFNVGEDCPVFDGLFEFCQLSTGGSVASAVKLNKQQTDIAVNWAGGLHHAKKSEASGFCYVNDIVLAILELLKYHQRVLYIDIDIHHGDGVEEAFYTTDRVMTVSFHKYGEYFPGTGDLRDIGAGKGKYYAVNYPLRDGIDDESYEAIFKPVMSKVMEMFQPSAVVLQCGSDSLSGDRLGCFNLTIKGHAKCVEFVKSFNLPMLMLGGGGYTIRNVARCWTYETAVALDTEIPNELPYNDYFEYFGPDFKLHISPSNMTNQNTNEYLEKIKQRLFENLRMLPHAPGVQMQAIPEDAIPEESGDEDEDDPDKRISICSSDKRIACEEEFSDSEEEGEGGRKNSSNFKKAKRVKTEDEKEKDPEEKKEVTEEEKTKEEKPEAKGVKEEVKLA
Sequence of HDAC4 (P56524 whole entry): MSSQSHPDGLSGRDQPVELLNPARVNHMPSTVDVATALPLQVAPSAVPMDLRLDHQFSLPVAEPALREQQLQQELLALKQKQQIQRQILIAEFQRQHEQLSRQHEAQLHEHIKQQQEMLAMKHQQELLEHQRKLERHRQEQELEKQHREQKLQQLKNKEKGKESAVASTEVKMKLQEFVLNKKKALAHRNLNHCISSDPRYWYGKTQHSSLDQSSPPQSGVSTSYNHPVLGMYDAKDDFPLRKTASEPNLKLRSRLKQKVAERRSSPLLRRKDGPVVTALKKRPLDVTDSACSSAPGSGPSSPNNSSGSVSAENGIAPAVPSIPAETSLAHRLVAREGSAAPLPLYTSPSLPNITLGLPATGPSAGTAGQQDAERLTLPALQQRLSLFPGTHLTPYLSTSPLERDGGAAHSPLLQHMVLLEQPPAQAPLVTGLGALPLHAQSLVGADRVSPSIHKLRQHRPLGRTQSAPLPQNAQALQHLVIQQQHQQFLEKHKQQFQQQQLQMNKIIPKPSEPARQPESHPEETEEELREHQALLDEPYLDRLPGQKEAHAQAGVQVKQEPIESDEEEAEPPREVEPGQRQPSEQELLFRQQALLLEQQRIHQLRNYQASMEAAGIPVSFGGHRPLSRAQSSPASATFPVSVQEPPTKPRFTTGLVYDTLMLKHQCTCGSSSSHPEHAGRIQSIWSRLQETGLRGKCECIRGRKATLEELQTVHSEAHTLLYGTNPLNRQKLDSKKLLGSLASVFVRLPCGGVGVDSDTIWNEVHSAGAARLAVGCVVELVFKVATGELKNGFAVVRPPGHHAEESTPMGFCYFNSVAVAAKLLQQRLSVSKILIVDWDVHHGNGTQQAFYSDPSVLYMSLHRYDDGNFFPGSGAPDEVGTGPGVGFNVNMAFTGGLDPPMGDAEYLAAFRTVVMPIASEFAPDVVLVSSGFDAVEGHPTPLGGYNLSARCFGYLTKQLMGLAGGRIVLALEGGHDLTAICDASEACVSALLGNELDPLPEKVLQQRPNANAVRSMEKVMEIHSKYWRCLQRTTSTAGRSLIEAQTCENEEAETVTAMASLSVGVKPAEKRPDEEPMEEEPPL
Sequence of HDAC6 (Q9UBN7 whole entry): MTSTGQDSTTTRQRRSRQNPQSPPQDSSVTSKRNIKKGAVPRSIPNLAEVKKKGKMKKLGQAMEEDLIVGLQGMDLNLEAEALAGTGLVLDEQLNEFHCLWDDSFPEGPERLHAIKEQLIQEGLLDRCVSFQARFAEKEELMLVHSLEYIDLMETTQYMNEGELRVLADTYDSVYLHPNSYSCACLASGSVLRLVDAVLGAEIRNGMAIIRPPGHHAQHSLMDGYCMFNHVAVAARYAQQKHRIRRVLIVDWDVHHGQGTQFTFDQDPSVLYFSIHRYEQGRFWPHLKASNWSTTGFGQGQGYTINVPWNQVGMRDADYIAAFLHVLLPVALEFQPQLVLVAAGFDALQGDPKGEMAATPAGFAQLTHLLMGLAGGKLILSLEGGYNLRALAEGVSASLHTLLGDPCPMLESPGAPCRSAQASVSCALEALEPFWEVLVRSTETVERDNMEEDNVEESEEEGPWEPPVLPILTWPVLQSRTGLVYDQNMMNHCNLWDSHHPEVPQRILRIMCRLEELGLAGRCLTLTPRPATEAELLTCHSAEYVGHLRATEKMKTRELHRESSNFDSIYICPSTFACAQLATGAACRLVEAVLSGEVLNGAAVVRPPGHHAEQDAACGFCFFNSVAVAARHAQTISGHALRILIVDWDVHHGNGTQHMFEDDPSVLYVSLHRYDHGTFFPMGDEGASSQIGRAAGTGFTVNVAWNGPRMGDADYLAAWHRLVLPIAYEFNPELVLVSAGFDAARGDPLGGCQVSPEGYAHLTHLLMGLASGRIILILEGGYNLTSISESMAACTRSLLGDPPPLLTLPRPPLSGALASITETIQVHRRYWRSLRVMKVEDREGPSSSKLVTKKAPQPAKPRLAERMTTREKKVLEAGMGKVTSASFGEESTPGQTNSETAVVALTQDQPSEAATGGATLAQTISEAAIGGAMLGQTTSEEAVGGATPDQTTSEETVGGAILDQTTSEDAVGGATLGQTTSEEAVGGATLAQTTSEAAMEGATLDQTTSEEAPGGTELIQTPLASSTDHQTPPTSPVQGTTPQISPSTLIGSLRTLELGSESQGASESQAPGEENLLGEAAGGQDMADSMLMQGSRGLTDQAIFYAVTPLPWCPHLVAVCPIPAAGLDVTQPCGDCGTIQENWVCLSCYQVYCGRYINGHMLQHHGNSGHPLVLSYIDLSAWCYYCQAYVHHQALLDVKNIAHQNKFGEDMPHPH
Sequence of HDAC9 (Q9UKV0 whole entry): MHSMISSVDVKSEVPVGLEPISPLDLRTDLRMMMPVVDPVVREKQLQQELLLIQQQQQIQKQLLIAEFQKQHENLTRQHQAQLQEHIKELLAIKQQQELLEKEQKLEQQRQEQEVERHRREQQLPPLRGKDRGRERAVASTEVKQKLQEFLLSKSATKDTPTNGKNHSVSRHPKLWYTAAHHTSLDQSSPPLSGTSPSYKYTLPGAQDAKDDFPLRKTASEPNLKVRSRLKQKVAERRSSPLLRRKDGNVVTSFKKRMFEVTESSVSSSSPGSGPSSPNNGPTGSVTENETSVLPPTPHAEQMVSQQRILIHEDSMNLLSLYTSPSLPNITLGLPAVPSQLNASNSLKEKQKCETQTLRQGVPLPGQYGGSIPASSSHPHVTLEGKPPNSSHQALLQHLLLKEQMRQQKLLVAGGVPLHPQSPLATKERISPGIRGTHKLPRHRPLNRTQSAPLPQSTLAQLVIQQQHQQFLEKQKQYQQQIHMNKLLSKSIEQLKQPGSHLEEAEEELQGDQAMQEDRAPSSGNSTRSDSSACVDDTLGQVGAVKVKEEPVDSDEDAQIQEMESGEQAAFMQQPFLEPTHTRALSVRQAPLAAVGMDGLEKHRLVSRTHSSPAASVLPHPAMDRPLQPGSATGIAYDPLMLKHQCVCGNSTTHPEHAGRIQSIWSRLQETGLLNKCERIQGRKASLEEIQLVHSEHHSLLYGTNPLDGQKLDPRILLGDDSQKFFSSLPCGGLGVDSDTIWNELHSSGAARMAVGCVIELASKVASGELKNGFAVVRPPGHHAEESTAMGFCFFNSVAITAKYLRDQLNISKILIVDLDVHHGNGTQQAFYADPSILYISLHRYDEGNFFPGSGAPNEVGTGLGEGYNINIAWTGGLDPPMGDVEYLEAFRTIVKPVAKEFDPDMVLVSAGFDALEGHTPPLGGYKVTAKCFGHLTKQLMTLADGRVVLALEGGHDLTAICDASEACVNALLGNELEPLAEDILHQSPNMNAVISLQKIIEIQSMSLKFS

IC50 (HDAC4): > 33 µM
IC50 (HDAC9): > 33 µM
Ki (HDAC2 [1]): ~6.3 µM
koff (HDAC2 [1]): 0.000867 s⁻¹
Ki (HDAC2 [1]; HDAC2): 6.3 µM
koff (HDAC2 [1]; HDAC2): 0.000867 s⁻¹
type of binding to HDAC2 (words) (HDAC2 [1]; HDAC2): fast off inhibitor
type of binding to HDAC2 (words) (HDAC2 [1]; HDAC2, listed as compound 1): slow on/fast off rates
T1/2 (HDAC2 [1]; HDAC2 residence): 13 min
IC50 (HDAC6): > 33 µM
Tm shift (HDAC2 [4]): 2.7 °C
KI (inactivation) (HDAC1; HDAC1, values marked *, read-out: Ki (binding constant derived from HDAC1 inactivation kinetics)): 5.1 µM
Kd (HDAC1; from Kinactivation vs concentration, read-out: Kd of HDAC1-Compound 1 complex): 5.1 µM
SMILES: CC(=O)Nc1ccc(C(=O)Nc2ccc(F)cc2N)cc1 [Compound 1, 4-acetamido-N-(2-amino-4-fluorophenyl)benzamide]
glucolipotoxicity-induced apoptosis in human islets (Human islets): decreases glucolipotoxicity-induced apoptosis in human islets
Kon (HDAC2 [1]; HDAC2): 0.0082 min^−1, uM^−1 and ~0.0082 min^−1, uM^−1
suppression of palmitate and/or glucose-induced beta-cell apoptosis (caspase activity) (INS-1E cells [2]): as effective at suppressing palmitate and/or glucose-induced beta-cell apoptosis as CI-994
Atf4 transcription factor induction (INS-1E cells [3]): did not affect Atf4 transcription factor induction
levels of the ER chaperone Bip mRNA (INS-1E cells [3]): did not change
splicing of Xbp1 to Xbp1s (INS-1E cells [3]): did not affect splicing
ATF4-mediated induction of Chop (INS-1E cells [3]; 9 hrs): decreased
ATF4-mediated induction of Atf3 (INS-1E cells [3]; 24 hrs): decreased
CHOP mRNA and protein induction (INS-1E cells [3]; 24 hrs): completely reversed
phosphorylation of JNK (pJNK/tJNK) (INS-1E cells [3]; 24 hrs): inhibited phosphorylation of JNK
glucolipotoxicity-induced apoptosis in rat islets (Rat islets): decreases glucolipotoxicity-induced apoptosis in rat islets
